Results reported in patent US7902252B2, “Inhibitors of D-amino acid oxidase” (Sepracor, Inc., priority 2007, dated 2011).

molecular target: Human DAAO (Homo sapiens, UniProt P14920); test: D-Amino Acid Oxidase enzyme assay (D-serine, horseradish peroxidase/Amplex Red coupled fluorescence); type: biochemical; details: D-serine 5 mM, pH 7.4
Experimental: DAAO enzyme activity was measured using the substrate D-serine at its Michaelis-Menton Km of 5 mM. The rate of oxidation is measured as a rate of production of hydrogen peroxide, which was detected using the enzyme horseradish peroxidase (Sigma cat. No. P-8375). This coupled reaction uses the enzyme substrate Amplex Red (Molecular Probes), which is converted to the fluorescent reaction product, resorufin (excitation 530-560 nm; emission ˜590 nm). Although DAAO has a higher pH optimum, all reagents were prepared in 50 mM sodium phosphate buffer at pH 7.4 and inhibition curves were generated at this pH.
The final concentrations of components in 200 μl total volume per well (black clear-bottom 96-well plate, Costar) were:
(a) Horseradish peroxidase: 4 Units per mL
(d) Amplex Red reagent: 50 uM
The reactions were initiated by addition of DAAO enzyme and the fluorescence was monitored. H2O2 was added at 16 uM final concentration to a control well on each plate to test for compound interference with a coupled enzyme. Inhibition curves were generated in the presence of varying concentrations of the inhibitor and IC50 values were calculated for each inhibitor.

Chain of Human DAAO (P14920 whole entry): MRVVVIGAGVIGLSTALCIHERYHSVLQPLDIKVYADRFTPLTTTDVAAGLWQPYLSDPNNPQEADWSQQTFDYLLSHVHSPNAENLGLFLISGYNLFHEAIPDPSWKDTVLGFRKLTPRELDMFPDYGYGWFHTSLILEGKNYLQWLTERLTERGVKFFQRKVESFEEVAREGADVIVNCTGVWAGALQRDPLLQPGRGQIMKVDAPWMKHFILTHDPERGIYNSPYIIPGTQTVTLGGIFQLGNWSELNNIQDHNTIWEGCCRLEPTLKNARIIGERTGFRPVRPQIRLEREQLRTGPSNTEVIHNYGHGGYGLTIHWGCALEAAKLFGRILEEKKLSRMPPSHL

Row | IC50 | Structure (SMILES)
1 | ≤ 1 µM | CC(C)c1ccc(CC2CCc3[nH]c(C(=O)O)cc32)cc1 (centres unmarked) [Compound 33, 4-(4-isopropylbenzyl)-1,4,5,6-tetrahydrocyclopenta[b]pyrrole-2-carboxylic acid]
2 | ≤ 1 µM | O=C(O)c1cc2c([nH]1)CC(F)(F)C2 [Compound 21, 5,5-difluoro-1,4,5,6-tetrahydrocyclopenta[b]pyrrole-2-carboxylic acid]
3 | ≤ 0.1 µM | O=C(O)c1cc2c([nH]1)C(Cc1ccccc1)CC2 (centres unmarked) [Compound 26, 6-benzyl-1,4,5,6-tetrahydrocyclopenta[b]pyrrole-2-carboxylic acid]
4 | ≤ 0.1 µM | O=C(O)c1cc2c([nH]1)CCC2Cc1ccc(F)c(F)c1 (racemic) [Compound 42, 4-(3,4-difluorobenzyl)-1,4,5,6-tetrahydrocyclopenta[b]pyrrole-2-carboxylic acid]
5 | ≤ 1 µM | O=C(O)c1cc2c([nH]1)CCC2CC1CCCCC1 (centres unmarked) [Compound 12, 4-(cyclohexylmethyl)-1,4,5,6-tetrahydrocyclopenta[b]pyrrole-2-carboxylic acid]
6 | ≤ 1 µM | NC(=O)c1cccc(CC2CCc3[nH]c(C(=O)O)cc32)c1 (centres unmarked) [Compound 77, 4-(3-carbamoylbenzyl)-1,4,5,6-tetrahydrocyclopenta[b]pyrrole-2-carboxylic acid]
7 | ≤ 1 µM | Cc1ccc(C2CCc3[nH]c(C(=O)O)cc32)cc1 (centres unmarked) [Compound 37, 4-p-tolyl-1,4,5,6-tetrahydrocyclopenta[b]pyrrole-2-carboxylic acid]
8 | ≤ 1 µM | N#Cc1cccc(C2CCc3cc(C(=O)O)[nH]c32)c1 (centres unmarked) [Compound 117, 6-(3-cyanophenyl)-1,4,5,6-tetrahydrocyclopenta[b]pyrrole-2-carboxylic acid]
9 | ≤ 100 µM | O=C(O)c1cc2c([nH]1)CCC2Cc1ccc(Br)cc1 (single isomer, unassigned) [Compound 61, 4-(4-bromobenzyl)-1,4,5,6-tetrahydrocyclopenta[b]pyrrole-2-carboxylic acid]
10 | ≤ 0.1 µM | O=C(O)c1cc2c([nH]1)CCC2Cc1ccc(F)cc1F (racemic) [Compound 45, 4-(2,4-difluorobenzyl)-1,4,5,6-tetrahydrocyclopenta[b]pyrrole-2-carboxylic acid]
11 | ≤ 1 µM | O=C(O)c1cc2c([nH]1)CCC2Cc1cccc(-c2cccnc2)c1 (centres unmarked) [Compound 83, 4-(3-(pyridin-3-yl)benzyl)-1,4,5,6-tetrahydrocyclopenta[b]pyrrole-2-carboxylic acid]
12 | > 100 µM | CC(C)(C)c1c(C(=O)O)[nH]c2c1C(=O)CC2 [Compound 3, 3-tert-butyl-4-oxo-1,4,5,6-tetrahydrocyclopenta[b]pyrrole-2-carboxylic acid]
13 | ≤ 1 µM | O=C(O)c1cc2c([nH]1)C(c1ccc(F)c(F)c1)CC2 (centres unmarked) [Compound 112, 6-(3,4-difluorophenyl)-1,4,5,6-tetrahydrocyclopenta[b]pyrrole-2-carboxylic acid]
14 | ≤ 1 µM | O=C(O)c1cc2c([nH]1)CCC2Cc1ccc2ccccc2c1 (single isomer, unassigned) [Compound 79, 4-(naphthalen-2-ylmethyl)-1,4,5,6-tetrahydrocyclopenta[b]pyrrole-2-carboxylic acid]
15 | ≤ 0.1 µM | COc1cccc(CC2CCc3[nH]c(C(=O)O)cc32)c1 (racemic) [Compound 66, 4-(3-methoxybenzyl)-1,4,5,6-tetrahydrocyclopenta[b]pyrrole-2-carboxylic acid]
16 | ≤ 100 µM | O=C(O)c1cc2c([nH]1)CCC2Cc1cccc(-c2ccco2)c1 (single isomer, unassigned) [Compound 88, 4-(3-(furan-2-yl)benzyl)-1,4,5,6-tetrahydrocyclopenta[b]pyrrole-2-carboxylic acid]
17 | ≤ 1 µM | O=C(O)c1cc2c([nH]1)CCC2Cc1cccc(-c2ccccc2)c1 (centres unmarked) [Compound 82, 4-(biphenyl-3-ylmethyl)-1,4,5,6-tetrahydrocyclopenta[b]pyrrole-2-carboxylic acid]
18 | ≤ 0.1 µM | O=C(O)c1cc2c([nH]1)CCC2c1cccc(Cl)c1 (centres unmarked) [Compound 102, 4-(3-chlorophenyl)-1,4,5,6-tetrahydrocyclopenta[b]pyrrole-2-carboxylic acid]
19 | ≤ 0.1 µM | O=C(O)c1cc2c([nH]1)CCC2Cc1ccc(Br)cc1 (racemic) [Compound 60, 4-(4-bromobenzyl)-1,4,5,6-tetrahydrocyclopenta[b]pyrrole-2-carboxylic acid]
20 | ≤ 100 µM | O=C(O)c1cc2c([nH]1)CCC2Cc1ccc(F)cc1F (single isomer, unassigned) [Compound 46, 4-(2,4-difluorobenzyl)-1,4,5,6-tetrahydrocyclopenta[b]pyrrole-2-carboxylic acid]
21 | ≤ 0.1 µM | O=C(O)c1cc2c([nH]1)C(Cc1cccc(Br)c1)CC2 (racemic) [Compound 125, 6-(3-bromobenzyl)-1,4,5,6-tetrahydrocyclopenta[b]pyrrole-2-carboxylic acid]

Row | IC50 | Structure (SMILES)
22 | ≤ 100 µM | O=C(O)c1cc2c([nH]1)C(CCc1ccccc1)CC2 (single isomer, unassigned) [Compound 29, 6-phenethyl-1,4,5,6-tetrahydrocyclopenta[b]pyrrole-2-carboxylic acid]
23 | ≤ 1 µM | O=C(O)c1cc2c([nH]1)CCC2CCCc1ccccc1 (centres unmarked) [Compound 36, 4-(3-phenylpropyl)-1,4,5,6-tetrahydrocyclopenta[b]pyrrole-2-carboxylic acid]
24 | ≤ 100 µM | O=C(O)c1cc2c([nH]1)CC(Cc1ccccc1)C2 (centres unmarked) [Compound 23, 5-benzyl-1,4,5,6-tetrahydrocyclopenta[b]pyrrole-2-carboxylic acid]
25 | ≤ 100 µM | O=C(O)c1cc2c([nH]1)C(CCCc1ccccc1)CC2 (single isomer, unassigned) [Compound 135, 6-(3-phenylpropyl)-1,4,5,6-tetrahydrocyclopenta[b]pyrrole-2-carboxylic acid]
26 | ≤ 100 µM | O=C(O)c1cc2c([nH]1)CCC2Cc1ccc(Cl)c(Cl)c1 (single isomer, unassigned) [Compound 58, 4-(3,4-dichlorobenzyl)-1,4,5,6-tetrahydrocyclopenta[b]pyrrole-2-carboxylic acid]
27 | ≤ 100 µM | O=C(O)c1cc2c([nH]1)CCC2CC(F)(F)F (centres unmarked) [Compound 38, 4-(2,2,2-trifluoroethyl)-1,4,5,6-tetrahydrocyclopenta[b]pyrrole-2-carboxylic acid]
28 | ≤ 0.1 µM | O=C(O)c1cc2c([nH]1)CCC2Cc1cccc(Br)c1 (racemic) [Compound 63, 4-(3-bromobenzyl)-1,4,5,6-tetrahydrocyclopenta[b]pyrrole-2-carboxylic acid]
29 | ≤ 0.1 µM | O=C(O)c1cc2c([nH]1)CCC2Cc1cccc(-c2ccc[nH]2)c1 (racemic) [Compound 91, 4-(3-(1H-pyrrol-2-yl)benzyl)-1,4,5,6-tetrahydrocyclopenta[b]pyrrole-2-carboxylic acid]
30 | ≤ 100 µM | Cc1c(C(=O)O)[nH]c2c1C(=O)CCC2 [Compound 31, 3-methyl-4-oxo-4,5,6,7-tetrahydro-1H-indole-2-carboxylic acid]
31 | ≤ 100 µM | O=C(O)c1cc2c([nH]1)CCCC2Cc1ccccc1 (centres unmarked) [Compound 32, 4-benzyl-4,5,6,7-tetrahydro-1H-indole-2-carboxylic acid]
32 | ≤ 100 µM | O=C(O)c1cc2c([nH]1)CCC2Cc1cccc(-c2ccco2)c1 (racemic) [Compound 87, 4-(3-(furan-2-yl)benzyl)-1,4,5,6-tetrahydrocyclopenta[b]pyrrole-2-carboxylic acid]
33 | ≤ 100 µM | O=C(O)c1cc2c([nH]1)CCC2c1cc(F)cc(F)c1 (single isomer, unassigned) [Compound 99, 4-(3,5-difluorophenyl)-1,4,5,6-tetrahydrocyclopenta[b]pyrrole-2-carboxylic acid]
34 | ≤ 100 µM | O=C(O)c1cc2c([nH]1)CCC2c1ccc(-c2ccccc2)cc1 (centres unmarked) [Compound 106, 4-(biphenyl-4-yl)-1,4,5,6-tetrahydrocyclopenta[b]pyrrole-2-carboxylic acid]
35 | ≤ 1 µM | O=C(O)c1cc2c([nH]1)C(c1ccc(-c3ccccc3)cc1)CC2 (single isomer, unassigned) [Compound 119, 6-(biphenyl-4-yl)-1,4,5,6-tetrahydrocyclopenta[b]pyrrole-2-carboxylic acid]
36 | ≤ 0.1 µM | O=C(O)c1cc2c([nH]1)C(Cc1cccc(Cl)c1)CC2 (racemic) [Compound 121, 6-(3-chlorobenzyl)-1,4,5,6-tetrahydrocyclopenta[b]pyrrole-2-carboxylic acid]
37 | ≤ 0.1 µM | O=C(O)c1cc2c([nH]1)CCC2c1ccc(Cl)cc1 (centres unmarked) [Compound 101, 4-(4-chlorophenyl)-1,4,5,6-tetrahydrocyclopenta[b]pyrrole-2-carboxylic acid]
38 | ≤ 1 µM | Cc1ccc(C2CCc3cc(C(=O)O)[nH]c32)cc1 (centres unmarked) [Compound 116, 6-p-tolyl-1,4,5,6-tetrahydrocyclopenta[b]pyrrole-2-carboxylic acid]
39 | ≤ 100 µM | O=C(O)c1cc2c([nH]1)C(Cc1cccc(Br)c1)CC2 (single isomer, unassigned) [Compound 126, 6-(3-bromobenzyl)-1,4,5,6-tetrahydrocyclopenta[b]pyrrole-2-carboxylic acid]
40 | ≤ 1 µM | O=C(O)c1cc2c([nH]1)C(=O)CC2 [Compound 24, 6-oxo-1,4,5,6-tetrahydro-cyclopenta[b]pyrrole-2-carboxylic acid]
41 | ≤ 1 µM | O=C(O)c1cc2c([nH]1)CCC2Cc1cccc(-c2ccc(C(F)(F)F)cc2)c1 (centres unmarked) [Compound 84, 4-((4′-(trifluoromethyl)biphenyl-3-yl)methyl)-1,4,5,6-tetrahydrocyclopenta[b]pyrrole-2-carboxylic acid]
